Design: species or system Yorkshire cross swine
Conditions: in vivo
Procedure: PuraMatrix™, a peptide solution comprising Ac-RADARADARADARADA-NH2 (Ac-Arg-Ala-Asp-Ala-Arg-Ala-Asp-Ala-Arg-Ala-Asp-Ala-Arg-Ala-Asp-Ala-NH2) (SEQ ID NO: 58) in water was used as an embolic agent in a porcine model through angiography, gross necropsy assessment, and histopathology assessment. One female Yorkshire cross swine was tested. The weight of the swine at the time of testing was 46.5 kg. Feed and water were provided per standard operating procedures. There were no contaminants in the food or water that were expected to interfere with the conduct or results of the study. The swine was acquired from a test facility approved animal supplier. The Swine participated in an incoming physical exam, and after a period of acclimation was again examined. The swine was fasted a minimum of 12 hours prior to the procedures. The animals were sedated and anesthetized by an intramuscular or subcutaneous injection of Telazol (2-10 mg/kg) and Xylazine (0.5=5.0 mg/kg). Propofol (to effect) was given to aid in sedation. An endotracheal tube was used to ensure proper ventilation and the animals were maintained under general anesthesia with inhalant isofluorante (0.1 to 5.0%). Heparin (50-300 units/kg, IV) was administered throughout the procedure.
On the day of testing, the swine was 2 months, 25 days old. The swine was sedated and prepared for surgery. […]

Ac-RADARADARADARADA-NH2 [PuraMatrix™]
adverse events throughout the testing: no adverse events

Source: patent US12629446B2, “Vascular embolic system” (3-D Matrix, Ltd., priority 2012, dated 2026)
